Common to all, as to experiment: NCI-60 cell line screen, 48 h
Test [1] relates to EKVX NSCLC.
For test [2], the system named is HL-60(TB) leukemia.
Test [3] has as its system HS 578T breast.
Test [4] deals with IGROV1 ovarian.
The test system of test [5] is K-562 leukemia.
Test [6] concerns MALME-3M melanoma.
The subject of test [7] is NCI-H226 lung.
Test [8] relates to SW-620 colon.
In test [9] the test system is T-47D breast.
Test [10] has as its system UO-31 renal.

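Assay format: 96-well plates, 48-hour exposure. GI50 = concentration required for 50% inhibition of growth. TGI denotes the concentration required for complete inhibition of growth.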

`COc1cccc2c1C(=O)c1c(O)c3c(c(O)c1C2=O)C[C@@](O)(C(C)=O)CC3OC1CC(OC2CC(N)C(O)C(C)O2)C(O)C(C)O1` (stereo not given in full): the TGI was more than 100 µM in [1]; 34.8 µM in test [2]; more than 100 µM in test [3]; more than 100 µM in test [4]; more than 100 µM in [5]; more than 100 µM in [6]. For the same compound, the TGI in test [7], in test [8], in test [9] and in [10] was more than 100 µM each time.

Consider `CCCC(=O)O[C@]1(C)CC[C@@H]2[C@H]3[C@@H]1[C@@H]1C[C@@](C)(O)[C@H](OC)CC[C@](C)(OC(=O)[C@@H]2C)[C@H]3O1`, for which the GI50 in test [1] was 47.3 µM; in test [2], 21.2 µM; in [3], 28.8 µM; in test [4] it was 24.9 µM; in test [5] it was 14.4 µM; in test [6], 17.8 µM. Also, the GI50 in test [7] is 55 µM; in test [8], 34.4 µM; in [9] it was 21.6 µM; in [10], 40.4 µM. The TGI in test [1] is more than 100 µM; in [2] it was 45.1 µM; in test [3], 72.7 µM; in test [4], 62 µM; in test [5], 27.5 µM; in [6], 33.8 µM. The TGI in test [7] was more than 100 µM; in [8], more than 100 µM; in [9] it was 44.5 µM; in test [10], more than 100 µM.

Regarding `CN1CCN(C2=NC(=O)/C(=C\c3ccc(N(C)C)cc3)S2)CC1`, the GI50 in [1] was more than 100 µM; in [2], 46 µM; in test [3], more than 100 µM; in [4] it was 72.5 µM; in test [5] it was more than 100 µM; in test [6], more than 100 µM. The GI50 in [7] was more than 100 µM; in test [8], more than 100 µM; in test [9], 36.7 µM; in test [10], 71 µM. Besides, the TGI in test [1], in test [2], in [3], in test [4], in [5] and in [6] was more than 100 µM each time. Also, the TGI in test [7], in [8], in test [9] and in test [10] was more than 100 µM throughout.

Take `Clc1ccccc1C(Nc1cnccn1)Nc1cnccn1`: the TGI in test [1], in test [2], in test [3], in [4], in [5] and in test [6] was more than 100 µM in each case. Further, the TGI in test [7], in [8], in test [9] and in [10] was more than 100 µM throughout.

As for `COc1ccc(-c2ccc(OC)c(OC)c2OC)cc1`, the GI50 in test [1] was 4.1 µM; in [2], 1.04 µM; in test [3], 1.82 µM; in test [4], 4.08 µM; in test [5] it was 0.431 µM; in [6] it was 9.53 µM. The GI50 in test [7] was 17.3 µM; in test [8], 0.528 µM; in test [9] it was 5.87 µM; in test [10] it was 4.6 µM. Besides, the TGI in test [1] is more than 100 µM; in test [2] it was 9.93 µM; in test [3], more than 23.1 µM; in [4], more than 100 µM; in [5], more than 100 µM; in test [6], more than 100 µM. The TGI in [7], in [8], in [9] and in [10] was more than 100 µM in each case.

On to `Cc1ccc(/C(=N/Nc2ccc([N+](=O)[O-])cc2)Sc2cc(Cl)c(C)cc2S(N)(=O)=O)cc1`, for which the GI50 is 3.14 µM in test [1]; 11.9 µM in [2]; 2.45 µM in [3]; 2.44 µM in test [4]; 3.11 µM in test [5]; 1.91 µM in [6]. In addition, the GI50 in [7] is 1.64 µM; in test [8] it was 2.55 µM; in [9], 3.14 µM; in test [10], 2.56 µM. Further, the TGI is 9.12 µM in test [1]; 42.1 µM in [2]; more than 23.5 µM in test [3]; 14.6 µM in test [4]; more than 38.4 µM in test [5]; 4.58 µM in test [6]. In addition, the TGI in [7] was 3.57 µM; in test [8], 10.5 µM; in test [9], more than 23.2 µM; in test [10], 10.7 µM.

`O=C(Nc1n[nH]c2cc(-c3cc(F)ccc3F)ccc12)C1CC1`: the GI50 was more than 22.3 µM in test [1]; 7.81 µM in test [2]; 13.1 µM in [3]; more than 25 µM in [4]; 7.47 µM in test [5]; 14.2 µM in test [6]. Further, the GI50 is 18.4 µM in [7], 10.7 µM in test [8], 11.8 µM in test [9] and 16.1 µM in test [10]. The TGI in test [1], in test [2], in [3], in test [4], in test [5] and in [6] was more than 25 µM in each case. Besides, the TGI in [7], in test [8], in [9] and in test [10] was more than 25 µM throughout.

Source of the values: PubChem BioAssay (NCI).
